target: T1, human mPGES-1 (Homo sapiens, UniProt O14684); experiment: mPGES-1 inhibition assay (conversion of PGH2 to PGE2, HPLC analysis); type: biochemical; conditions: human mPGES-1 expressed in E. coli, membrane fraction; 25 min preincubation, PGH2 substrate 60 s, room temperature; read-out: concentration at which 50% inhibition of mPGES-1 was observed
T1 construct: made in house; host or cells: E. coli (membrane fraction)
T1 sequence (O14684 1-152): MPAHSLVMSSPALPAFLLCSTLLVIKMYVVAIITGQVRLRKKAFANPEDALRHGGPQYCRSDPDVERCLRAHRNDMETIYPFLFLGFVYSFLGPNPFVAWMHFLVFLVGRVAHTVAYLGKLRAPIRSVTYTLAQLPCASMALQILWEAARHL
Protocol: In the assay human in PGES-1 catalyses the reaction where the substrate PGH2 is converted to PGE2. mPGES-1 is expressed in E. Coli and the membrane fraction is dissolved in 20mM NaPi-buffer pH 8.0 and stored at −80° C. In the assay human mPGES-1 is dissolved in 0.1 M KPi-buffer pH 7.35 with 2.5 mM glutathione. The stop solution consists of H2O/MeCN (7/3), containing FeCl2 (25 mM) and HCl (0.15 M). The assay is performed at room temperature in 96-well plates. Analysis of the amount of PGE2 is performed with reversed phase HPLC (Waters 2795 equipped with a 3.9×150 mm C18 column). The mobile phase consists of H2O/MeCN (7/3), containing TFA (0.056%), and absorbance is measured at […] with a Waters 2487 UV-detector.
The following is added chronologically to each well: • 1. 100 μL human mPGES-1 in KPi-buffer with glutathione. Total protein concentration: 0.02 mg/mL. • 2. […] inhibitor in DMSO. Incubation of the plate at room temperature for 25 minutes. • 3. 4 μL of a […] PGH2 solution. Incubation of the plate at room temperature for 60 seconds. • 4. 100 μL stop solution. • 180 μL per sample is analyzed with HPLC.

Compound | IC50 [nM]
CC(C)Oc1ccc(-c2c(C(=O)O)n(-c3cccc(OC(C)C)c3)c3ccc(-c4ccc(C(C)(C)C)cc4)cc23)cc1 [Example 2, 5-(4-tert-Butylphenyl)-1-(3-isopropoxyphenyl)-3-(4-isopropoxyphenyl)-indole-2-carboxylic acid] | 350
CC(C)Oc1ccc(-c2c(C(=O)O)n(-c3ccc(N(C)C)cc3)c3ccc(-c4ccc(C(C)(C)C)cc4)cc23)cc1 [Example 5, 5-(4-tert-Butylphenyl)-1-(4-(dimethylamino)phenyl)-3-(4-isopropoxyphenyl)indole-2-carboxylic acid] | 210
CC(C)Nc1ccc(-n2c(C(=O)O)c(-c3ccc(OC(C)C)cc3)c3cc(-c4ccc(C(C)(C)C)cc4)ccc32)cc1 [Example 6, 5-(4-tert-Butylphenyl)-3-(4-isopropoxyphenyl)-1-(4-(isopropylamino)-phenyl)indole-2-carboxylic acid] | 70
CC(C)Oc1ccc(-n2c(C(=O)O)c(-c3cccnc3)c3cc(-c4ccc(C(F)(F)F)cc4)ccc32)cn1 [Example 11, 1-(6-Isopropoxypyrid-3-yl)-3-(pyrid-3-yl)-5-(4-(trifluoromethyl)phenyl)-indole-2-carboxylic acid] | 1800
CC(C)Oc1ccc(-c2c(C(=O)O)n(-c3cccnc3)c3ccc(-c4ccc(C(C)(C)C)cc4)cc23)cc1 [Example 13, 5-(4-tert-Butylphenyl)-3-(4-isopropoxyphenyl)-1-pyrid-3-yl-1H-indole-2-carboxylic acid] | 950
